Laboratory results taken from patent US20210369803A1, “COMPOSITION CONTAINING SALVIA MILTIORRHIZA BUNGE EXTRACT AS ACTIVE INGREDIENT FOR TREATMENT OR PREVENTION OF BENIGN PROSTATIC HYPERPLASIA OR ALOPECIA” (CUROME BIOSCIENCES CO., LTD., priority 2019, published 2021).

What was measured:
[1] = system: steroid receptor coactivator-1 (SRC-1); experiment: Western blot of SRC-1 expression in DHT-treated LNCaP cells; assay type: cell-based, human; settings: 5 μM, DHT-induced LNCaP cells
Description: (§1) Animal cells were cultured to investigate the effect of the Salvia miltiorrhiza Bunge extract of the present invention on benign prostatic hyperplasia or alopecia. Human prostate adenocarcinoma cell line LNCaP cells sensitive to androgens were used as animal cells, and purchased from the Korean Cell Line Bank (Seoul, Korea, KCLB #:21740). The cells were cultured in Roswell Park Memorial Institute (RPMI) medium supplemented with […] penicillin/streptomycin and 10% fetal bovine serum (FBS), and maintained in a CO2 incubator at 37° C.
(§2) Goat anti-rabbit immunoglobulin G (IgG, 7074) and anti-mouse IgG (7076) were purchased from Cell Signaling (Danvers, Mass.). […]
(§3) The LNCaP cells were seeded onto 6-well plates (1×10^6 cells/well) in 2 mL of RPMI medium supplemented with 10% FBS, 100 U/mL penicillin, and […] streptomycin. […] The lysed cells were centrifuged at 13,000 RPM for 20 minutes at 4° C., and the protein concentration was determined using BCA assay. […] The chemiluminescent intensities of protein signals were quantified using ImageJ 1.47 v software, and the results are shown in FIG. 2. The data obtained by SPSS version 11.5 for Windows (SPSS Inc., Chicago, Ill., USA) were expressed as the means±standard errors of the means (SEM). […]

[2] = system: prostate-specific antigen (PSA); experiment: Western blot of PSA expression in DHT-treated LNCaP cells; assay type: cell-based, human; settings: 5 μM, same concentration as tanshinone2a, DHT-induced LNCaP cells
Description: as §1, §2, §3

androgen receptor (AR) = experiment: Western blot of AR expression in DHT-treated LNCaP cells; assay type: cell-based, human; settings: 5 μM, same concentration as tanshinone2a, DHT-induced LNCaP cells
Description: as §1, §2, §3

[3] = system: 5α-reductase type 2 (5AR2); experiment: Western blot of 5AR2 expression in DHT-treated LNCaP cells; assay type: cell-based, human; settings: 5 μM, DHT-induced LNCaP cells
Description: as §1, §2, §3

[4] = system: androgen-related proteins; experiment: Overall effect on androgen-related proteins increased by DHT in LNCaP cells; assay type: cell-based, human; settings: 5 μM, compared among tanshinone1, tanshinone2a, cryptotanshinone, 15,16-dihydrotanshinone
Description: as §1, §2, §3

[5] = Body weight in benign prostatic hyperplasia animal models; assay type: in vivo, Sprague-Dawley rats; settings: BPH rats, oral once/day 14 days; extracts and saw palmetto 10-25 mg/kg, finasteride 10 mg/kg
Description: Sprague-Dawley rats aged 9 weeks (body weights of 350 g or less) were acclimated for one week or longer, and then used in tests. In order to induce benign prostatic hyperplasia, testicles were removed and then testosterone (dissolved in corn oil) was subcutaneously injected at a dose of 3 mg/kg once/three days for a total of 10 times. […] For the benign prostatic hyperplasia induction groups, testicles were removed and then […] (dissolved in corn oil) was subcutaneously injected at a dose of 3 mg/kg once/three days for a total of 10 times, by the same method as in Example 4.1. For the normal group, an equivalent amount of corn oil was subcutaneously injected. Salvia miltiorrhiza Bunge extracts T70 to T10 and saw palmetto fruit extract were dissolved in distilled water, and orally administered at a dose of 10-25 mg/kg once/day, for 14 days. For the finasteride administration group (Sigma, dissolved in 0.2% Tween 80), finasteride was orally administered at a dose of 10 mg/kg once/day for 14 days. For the negative control group, only distilled water was orally administered. The body weight was measured upon the end of the test, and on the next day after the ending of the last dosing and treatment, the SD-rats were sacrificed with carbon dioxide gas, and then the prostate tissue was extracted and the weight was measured. […]

cells = settings: as reported by SHAN GAO, et al. (2019); cited from earlier work

Cc1cccc2c3c(ccc12)C1=C(C(=O)C3=O)[C@@H](C)CO1 [15,16-dihydrotanshinone, (1R)-1,6-dimethyl-1,2-dihydronaphtho[1,2-g][1]benzofuran-10,11-dione]
inhibition of SRC-1 expression [1]: more effectively than tanshinone2a | inhibition of PSA expression relative to tanshinone2a [2]: at least 5 times | inhibition of AR expression relative to tanshinone2a (androgen receptor (AR)): at least 5 times | inhibition of 5AR2 expression [3]: more effectively than tanshinone2a | inhibitory effect on androgen-related proteins increased by DHT [4]: most inhibitory effect

CC(C)(C)NC(=O)[C@H]1CC[C@H]2[C@@H]3CC[C@H]4NC(=O)C=C[C@]4(C)[C@H]3CC[C@]12C [finasteride]
body weight compared with control group (Con) [5]: no great difference

O=C(/C=C/c1ccc(O)c2c1[C@H](C(=O)O[C@H](Cc1ccc(O)c(O)c1)C(=O)O)[C@@H](c1ccc(O)c(O)c1)O2)O[C@H](Cc1ccc(O)c(O)c1)C(=O)O [salvianolic acid B]
cytotoxicity (cells): has cytotoxicity at a predetermined concentration
